The text below walks through data of patent publication US7655690B2, “1-sulfonylindole derivatives, their preparation and their use as 5-HT6 ligands” (Laboratorios del Dr. Esteve S.A., priority 2004, dated 2010).

Structures can show the parent of a compound that is named as a salt.

Regarding `O=S(=O)(C1CCCCC1)n1cc(C2=CCN3CCCC3C2)c2cc(F)ccc21` (stereo not shown) (as salt: hydrochloride) [Example 4, 1-Cyclohexanesulfonyl-5-fluoro-3-(1,2,3,5,8,8a-hexahydro-indolizine-7-yl)-1H-indole hydrochloride], the melting point (in general, the temperature, or range, at which the solid turns liquid) came to 263 °C.
To `CN1CC=C(c2cn(S(=O)(=O)C3CCCCC3)c3ccc([N+](=O)[O-])cc23)CC1` [Example 1, 1-Cyclohexanesulfonyl-3-(1-methyl-1,2,3,6-tetrahydropyridine-4-yl)-5-nitro-1H-indole] belongs 155 to 160 °C.
Consider `CN1CC=C(c2cn(S(=O)(=O)C3CCCCC3)c3ccc(Cl)cc23)CC1` [Example 2, 5-Chloro-1-cyclohexanesulfonyl-3-(1-methyl-1,2,3,6-tetrahydropyridine-4-yl)-1H-indole], for which the melting point lay within 88 to 90 °C.
To `CN1CC=C(c2cn(S(=O)(=O)C3CCCCC3)c3ccc(N)cc23)CC1` [Example 3, 5-Amino-1-cyclohexanesulfonyl-3-(1-methyl-1,2,3,6-tetrahydropyridine-4-yl)-1H-indole] belongs 75 °C.
